{"source": "patent US9662320B2", "about": "“Antagonists of the cannabinoid receptor CB1 for use in the treatment of diseases associated with neuronal dendritic abnormalities” (Universitat Pompeu Fabra, priority 2013, dated 2017)", "test_system": "Fmr1^−/y mice", "experiment": "Dendritic spine density and morphology analysis in Fmr1−/y mice treated with rimonabant", "type": "in vivo", "details": "1 mg/kg, i.p., 7 d", "procedure": "Fmr1 knockout (KO) mice in FVB background (Fmr1 KO, FVB.129P2-Pde6b^+ Tyr^c-ch Fmr1^tm1Cgr/J) and wild-type mice (WT, FVB.129P2-Pde6b^+ Tyr^c-ch/AntJ) were purchased from The Jackson Laboratory and crossed to obtain Fmr1^−/y and WT littermates. All experimental animals were bred in-house at the Barcelona Biomedical Research Park (PRBB) Animal Facility. Fmr1^−/y and WT mice were used at 12 to 16 weeks of age. Mice were housed four per cage in a temperature (21±1° C.) and humidity (55±10%) controlled environment. Food and water were available ad libitum. All the experiments were performed during the light phase of a 12 h light/dark cycle (lights on at 8 am and off at 8 pm). Animals were handled for one week before starting the experiments. All animal procedures followed the standard ethical guidelines (European Communities Directive […]) and were approved by the local ethical committee (Comitè Èlic d'Experimentació Animal-Parc de Recerca Biomèdica de Barcelona, CEEA-PRBB). The PRBB has also the Animal Welfare Assurance (#A5388-01, IACUC Approval Date Jun. 8, 2009) granted by the Office of Laboratory Animal Welfare (OLAW) of the National Institutes of Health (USA). All behavioral tests were performed by researchers blind to the different experimental groups.\nRimonabant was obtained from Sanofi-Aventis (Sanofi-Aventis Recherche). Rimonabant was injected intraperitoneally (i.p.) in a volume of 10 ml per kg.\nDendritic spine analysis was performed as previously described (Lee K W. et al., Proc Natl Acad Sci USA. 2006; 103(9): 3399-404) in mice that received a chronic administration of rimonabant (1 mg kg^−1, 7 d) or its vehicle. Brains were extracted after perfusion (4% PFA in PB) 3 h after the last administration of rimonabant or vehicle solution on the seventh day of treatment. […]\nResults are reported as mean±s.e.m. The experiments were evaluated by one-way analysis of variance (ANOVA) followed by the Dunnett's post-hoc test when required. […]", "key": {"[1]": {"details": "compared to vehicle-treated Fmr1^−/y mice"}}, "data": [{"smiles": "Cc1c(C(=O)NN2CCCCC2)nn(-c2ccc(Cl)cc2Cl)c1-c1ccc(Cl)cc1", "note": "[rimonabant, 5-(4-Chlorophenyl)-1-(2,4-dichloro-phenyl)-4-methyl-N-(piperidin-1-yl)-1H-pyrazole-3-carboxamide]", "values": [{"measurement": "dendritic spine density of CA1 pyramidal neurons", "setting": "CA1 field of the hippocampus", "value": "normalized"}, {"measurement": "mushroom/wide (mature) spines", "setting": "[1]", "value": "increase"}, {"measurement": "thin/stubby (immature) spines", "setting": "[1]", "value": "decrease"}]}]}
